Experiment: xn = mol fraction of the nth substance listed
Settings: 101 kPa, Liquid; for mass density: Vibrating tube method

CCn1cc[n+](C)c1.O=S(=O)([O-])C(F)(F)F [1-ethyl-3-methylimidazolium trifluoromethanesulfonate] + C1CCOC1
Settings | mass density, 278.15 K [kg/m3] | mass density, 288.15 K [kg/m3] | mass density, 298.15 K [kg/m3] | mass density, 308.15 K [kg/m3] | mass density, 318.15 K [kg/m3] | speed of sound, 278.15 K [m/s] | speed of sound, 288.15 K [m/s] | speed of sound, 298.15 K [m/s] | speed of sound, 308.15 K [m/s] | speed of sound, 318.15 K [m/s]
x1 = 0.051 | 964.39 | 953.89 | 943.29 | 932.59 | 921.76 | 1362.7 | 1316.9 | 1271.7 | 1227 | 1182.8
x1 = 0.1 | 1013.94 | 1003.61 | 993.23 | 982.77 | 972.18 | – | 1318.7 | 1275.5 | 1233.3 | 1191.4
x1 = 0.1503 | 1059.68 | 1049.68 | 1039.61 | 1029.5 | 1019.22 | – | 1325.4 | 1285.5 | 1246.5 | 1207.2
x1 = 0.2001 | 1098.67 | 1088.88 | 1079.04 | 1069.18 | 1059.3 | 1373.3 | 1334.8 | 1297.4 | 1260.7 | 1224.5
x1 = 0.3001 | 1166.19 | 1155.19 | 1145.24 | 1135.87 | 1126.45 | 1387.7 | 1353.8 | 1320.8 | 1288.7 | 1257.1
x1 = 0.3992 | 1217.18 | 1207.94 | 1198.76 | 1189.62 | 1180.52 | 1403.5 | 1372.7 | 1342.8 | 1313.3 | 1284.5
x1 = 0.4995 | 1261.1 | 1252.06 | 1243.08 | 1234.16 | 1225.28 | 1414.7 | 1388 | 1361.4 | 1335.5 | 1309.7
x1 = 0.599 | 1297.75 | 1288.87 | 1280.05 | 1271.3 | 1262.63 | 1432.5 | 1405.8 | 1379.9 | 1354.5 | 1329.9
x1 = 0.7014 | 1330 | 1321.24 | 1312.54 | 1303.92 | 1295.36 | 1446.6 | 1421.4 | 1396.8 | 1372.6 | 1349
x1 = 0.7965 | 1356.21 | 1347.55 | 1338.96 | 1330.44 | 1321.98 | 1459 | 1434.6 | 1410.8 | 1387.6 | 1365.1
x1 = 0.849 | 1369.15 | 1360.54 | 1352 | 1343.53 | 1335.11 | 1465.4 | 1441.4 | 1418.1 | 1395.2 | 1372.9
x1 = 0.899 | 1380.34 | 1371.78 | 1363.27 | 1354.82 | 1346.41 | 1470.5 | 1446.4 | 1423.1 | 1400.3 | 1378.1
x1 = 0.9511 | 1391.34 | 1382.83 | 1374.36 | 1365.93 | 1357.57 | 1476 | 1452.3 | 1429.2 | 1406.8 | 1384.9

CCn1cc[n+](C)c1.O=S(=O)([O-])C(F)(F)F [1-ethyl-3-methylimidazolium trifluoromethanesulfonate] + CC(C)O
speed of sound [m/s], Sing-around technique in a fixed-path interferometer
Settings | 278.15 K | 288.15 K | 298.15 K | 308.15 K | 318.15 K | 328.15 K
x1 = 0.0499 | 1220.6 | 1188.2 | 1156.4 | 1124.5 | 1092.5 | 1060.1
x1 = 0.0996 | 1233.3 | 1203.2 | 1173.6 | 1143.9 | 1114.1 | 1084.3
x1 = 0.15 | 1249.7 | 1221.4 | 1193.3 | 1165.3 | 1137.2 | 1109
x1 = 0.2001 | 1267.9 | 1240.6 | 1213.7 | 1186.8 | 1159.9 | 1133
x1 = 0.2994 | 1305.6 | 1279.7 | 1254.2 | 1228.8 | 1203.6 | 1178.5
x1 = 0.4004 | 1341.7 | 1316.5 | 1291.8 | 1267.5 | 1243.3 | 1219.5
x1 = 0.4997 | 1373.6 | 1348.8 | 1324.7 | 1301 | 1277.6 | 1254.6
x1 = 0.5999 | 1401.7 | 1377.3 | 1353.6 | 1330.4 | 1307.7 | 1285.2
x1 = 0.7019 | 1426.3 | 1402.6 | 1379.4 | 1356.7 | 1334.4 | 1312.6
x1 = 0.7987 | 1447 | 1423.4 | 1400.5 | 1378.1 | 1356.2 | 1334.8
x1 = 0.8519 | 1458 | 1434.1 | 1411.2 | 1388.7 | 1366.7 | 1345.2
x1 = 0.8989 | 1465.9 | 1442.5 | 1419.8 | 1397.5 | 1375.9 | 1354.6
x1 = 0.9462 | 1474.3 | 1450.8 | 1428.1 | 1406 | 1384.3 | 1363.1

mass density [kg/m3]
Settings | 278.15 K | 288.15 K | 298.15 K | 308.15 K | 318.15 K | 328.15 K
x1 = 0.0499 | 868.82 | 860.62 | 852.27 | 843.73 | 834.95 | 825.89
x1 = 0.0996 | 929.8 | 921.53 | 913.15 | 904.62 | 895.92 | 887.02
x1 = 0.15 | 984.2 | 975.84 | 967.41 | 958.87 | 950.21 | 941.42
x1 = 0.2001 | 1032.07 | 1023.66 | 1015.19 | 1006.67 | 998.06 | 989.35
x1 = 0.2994 | 1111.77 | 1103.29 | 1094.81 | 1086.3 | 1077.77 | 1069.21
x1 = 0.4004 | 1177.58 | 1169.07 | 1160.58 | 1152.12 | 1143.67 | 1135.22
x1 = 0.4997 | 1231.42 | 1222.91 | 1214.45 | 1206.03 | 1197.63 | 1189.27
x1 = 0.5999 | 1276.64 | 1268.13 | 1259.68 | 1251.27 | 1242.91 | 1234.58
x1 = 0.7019 | 1315.15 | 1306.65 | 1298.2 | 1289.82 | 1281.48 | 1273.2
x1 = 0.7987 | 1347.13 | 1338.64 | 1330.2 | 1321.82 | 1313.5 | 1305.24
x1 = 0.8519 | 1362.88 | 1354.39 | 1345.96 | 1337.58 | 1329.26 | 1320.99
x1 = 0.8989 | 1375.94 | 1367.46 | 1359.02 | 1350.65 | 1342.33 | 1334.07
x1 = 0.9462 | 1388.37 | 1379.89 | 1371.46 | 1363.08 | 1354.76 | 1346.5

Reference: the NIST ThermoML archive (doi:10.1021/je200609g)
